The source of these data is paper PMC11869560, “Anticancer and cancer preventive activities of shogaol and curcumin from Zingiberaceae family plants in KG-1a leukemic stem cells” (BMC Complementary Medicine and Therapies, 2025).

Molecules are shown by their SMILES. ≈ marks a conversion by molar mass, not a printed value. Read-outs that look alike come from different tables or passages of the source.

As a reminder, the IC50 is the concentration at which inhibition is half-maximal.

Holding throughout (format): cell-based, human
The subject of test [1] is KG-1a cells. In words: Cell death analysis by PI staining and flow cytometry in KG-1a cells. Conditions: nocodazole 5–120 ng/mL, shogaol 6–9 µg/mL, curcumin various concentrations; time course. The method, then:
Additionally, PI staining was used to investigate the cytotoxicity of the active compounds. KG-1a cells after exposure to the active compounds with various concentration were harvested at different incubation times and washed with ice-cold PBS, pH 7.4 for 2 times. Then, the cells were resuspended with PI in PBS, pH 7.4 at a ratio of 1:10,000. The percentage of dead cells was detected by flow cytometry (CytoFLEX S, Beckman Coulter, CA, USA) and analyzed by CytExpert program (Beckman Coulter, CA, USA).
On the technique in general: A flow cytometer gives signals particle by particle.

The test system of test [2] is KG-1a cells. In words: MTT cytotoxicity assay in KG-1a cells. Conditions: for IC50 / IC20: Homo sapiens, KG-1a; for IC20: read-out: IC20 KG-1a (inhibitory concentration at 20% growth); for Selectivity index (SI): IC50 for normal cells (PBMCs) / IC50 for cancer cells (KG-1a).
The subject of another test is PBMCs. Nature of the test: MTT cytotoxicity assay in PBMCs. Particulars: Homo sapiens, PBMC; for IC20: incubation for 48 h, read-out: IC20 PBMCs (inhibitory concentration at 20% growth).
Test [3] relates to p-Akt (S473) in KG-1a cells. Nature of the test: p-Akt (S473) in KG-1a cells by Western blotting. Particulars: IC50 concentration, 6 h. The method, then: KG-1a cells (1.5 × 10^5 cells/mL) were treated with compounds or extracts at different incubation times. Then, the cells were harvested and the whole proteins were extracted using a RIPA buffer (25 mM Tris-base, pH 7.6, 0.1% SDS, 1% Triton X-100, 150 mM NaCl, and 1 mM EDTA). The protein concentration was measured using the Folin-Lowry or Bradford assay. The whole protein lysates (30 µg/lane) were then separated through 7.5% SDS-PAGE under reducing conditions and then transferred to PVDF membranes. The membranes were blocked in 5% skim milk in PBS, pH 7.4 at RT for 2 h, then, target proteins were probed with specific primary antibodies (anti-WT1, anti-CD34, anti-GAPDH, anti-cleaved caspase-3, anti-cleaved PARP, anti-phospho-Akt, anti-phospho-c-Jun, anti-phospho-SAPK/JNK, and anti-YAP/TAZ) indicated in Table S10 which diluted at a ratio of 1:1,000 in PBS, pH 7.4 at RT for 2 h. After incubation, the membranes were rinsed 6 times with 0.1% Tween-20 (Sigma-Aldrich, MA, USA) in PBS, pH 7.4 (PBS-T), each time for 5 min. […] Finally, the protein band signal was quantified by using a scan densitometer (Bio-Rad Laboratories, CA, USA). […]
For orientation: Immunoblotting shows a protein as a band on a membrane.

The mark [4] stands for this setting: 48 h, active compounds and drugs, MTT, 48 h, read-out: IC50 KG-1a.
Where [5] appears, read: Table S7, KG-1a, first replicate, read-out: IC50 value R1.
The mark [6] stands for this setting: Table S7, KG-1a, third replicate, read-out: IC50 value R3.
[7] abbreviates: active compounds and drugs, MTT, 48 h.
Where [8] appears, read: Table S8, PBMCs, first replicate, read-out: IC50 value R1.
[9] abbreviates: Table S8, PBMCs, second replicate, read-out: IC50 value R2.
The mark [10] stands for this setting: Table S8, PBMCs, third replicate, read-out: IC50 value R3.
Where [11] appears, read: active compounds and drugs, MTT, 48 h, read-out: IC50 PBMCs.

As to `CCCCC/C=C/C(=O)CCc1ccc(O)c(OC)c1` [Shogaol, shogaol], in the test on KG-1a cells [1], the “induction of cell death (PI staining)” value is on record as “notably induced cell death at 6 h”. Also, the IC50 in the test on KG-1a cells [2] (setting [4]) was 2.99 ± 0.01 µg/mL (≈ 10.8 µM); in the test on KG-1a cells [2] (setting [5]), 2.98 µg/mL (≈ 10.8 µM); in the test with KG-1a cells [2] (Table S7, KG-1a, mean of R1-R3, read-out: IC50 value Mean), 2.99 µg/mL (≈ 10.8 µM); in the test on KG-1a cells [2] (setting [6]), 2.99 µg/mL (≈ 10.8 µM); with PBMCs (setting [8]), 8.3 µg/mL (≈ 30 µM); with PBMCs (setting [9]) it was 9.9 µg/mL (≈ 35.8 µM). Moreover, the IC50 with PBMCs (setting [10]) came out at 9.35 µg/mL (≈ 33.8 µM); in the test on PBMCs (setting [11]), 9.18 ± 0.82 µg/mL (≈ 33.2 µM). Also, the IC20 in the test with KG-1a cells [2] (48 h, incubation for 48 h) stood at 0.12 µg/mL (≈ 0.434 µM); in the test with PBMCs, 6.06 ± 1.11 µg/mL (≈ 21.9 µM). The “Selectivity index (SI)” value with KG-1a cells [2] (48 h) is recorded as 3.07. For the same molecule, the “IC50 KG-1a” value in the test with KG-1a cells [2] (setting [7]) was 3 µg/mL (≈ 10.9 µM). The “p-Akt (S473) level compared to VC” value in test [3] is reported as “decreased”.
In the case of `COc1cc(/C=C/C(=O)CC(=O)/C=C/c2ccc(O)c(OC)c2)ccc1O` [Curcumin, curcumin], the “induction of cell death (PI staining)” value in the test with KG-1a cells [1] is recorded as “gradually induced cell death after 12 h of incubation”. The IC50 in the test with KG-1a cells [2] (setting [4]) was 10 µg/mL (≈ 27.1 µM); in the test on KG-1a cells [2] (setting [5]), 10.4 µg/mL (≈ 28.2 µM); with KG-1a cells [2] (Table S7, KG-1a, second replicate, read-out: IC50 value R2) it was 10.6 µg/mL (≈ 28.7 µM); in the test on KG-1a cells [2] (setting [6]), 10.6 µg/mL (≈ 28.8 µM); with PBMCs (setting [8]), 13.8 µg/mL (≈ 37.4 µM); with PBMCs (setting [9]), 14.6 µg/mL (≈ 39.6 µM). For the same molecule, the IC50 in the test on PBMCs (setting [10]) was found to be 13 µg/mL (≈ 35.2 µM); with PBMCs (setting [11]), 13.8 ± 0.82 µg/mL (≈ 37.4 µM). In addition, the IC20 with KG-1a cells [2] (48 h, incubation for 48 h) was found to be 3.51 ± 0.59 µg/mL (≈ 9.53 µM); in the test with PBMCs it was 3.72 ± 0.58 µg/mL (≈ 10.1 µM). The “Selectivity index (SI)” value in the test with KG-1a cells [2] (48 h) is reported as 1.31; in the test on KG-1a cells [2] (48 h, listed as curcumin) it was “greater than 1”. In addition, the “IC50 KG-1a” value in the test on KG-1a cells [2] (setting [7]) is listed as 10.52 ± 0.12 µg/mL (≈ 28.6 µM). The “IC20 KG-1a (inhibitory concentration at 20% growth)” value in the test with KG-1a cells [2] (incubation for 48 h) is 3 µg/mL (≈ 8.14 µM). Besides, the “p-Akt (S473) level compared to VC” value in test [3] is listed as “decreased”.
